Paper PMC6220849, “Mechanistic and structural studies of KDM‐catalysed demethylation of histone 1 isotype 4 at lysine 26” (Febs Letters, 2018)
Square brackets hold non-standard residues; d marks the D form. Ends that are not written are not given here. Lys(Me3) = C[N+](C)(C)CCCC[C@H](N)C(=O)O

Legend:
[1] = system: KDM4A (KDM4A1–359); test: MALDI-TOF MS demethylation activity assay, KDM4A; type: biochemical, human; set-up: key: 🟢: Indicates that clear demethylation activity was observed; 🟡: Indicates that low level demethylation activity was observed (<10% conversion after 1 h); 🔴: Indicates no activity under the stated conditions (1 μM KDM, 10 μM peptide); 🟡*: *Indicates demethylation activity was only observed with 5 μM KDM; conditions: peptide as substrate, 1 μM KDM, 10 μM peptide, 50 mM HEPES pH 7.5, Fe(II) 10 μM, ascorbate 100 μM, 2OG 200 μM, 1 h at 37 °C
Protocol: (§1) Recombinant proteins (1 μM) were incubated with peptides (10 μM, sequences are given in Table S1) in 50 mM HEPES, pH 7.5 with addition of Fe(II) ammonium sulfate (10 μM), sodium ascorbate (100 μM) and 2‐oxoglutaric acid (200 μM). Reactions with KDM3A and KDM7A also contained 1 mM tris(2‐carboxyethyl)phosphine hydrochloride. No enzyme reactions were included as negative controls. Reactions were incubated for 1 h at 37 °C before being quenched with 1 : 1 (v/v) methanol. Analysis was carried out by MALDI‐TOF MS (Bruker, Billerica, MA, USA), with demethylation observed as mass shifts of 14 Da.
(§2) Given the activity observed with KDM4E and KDM7A, we decided to investigate the intra‐subfamily conservation of this demethylation activity. The demethylation activity of the other subfamily members (KDM4A‐D and KDM7B) was therefore screened. […] Note that as with H3K9, demethylation of the monomethylated H1.4K26 peptide was only observed with KDM4E, under the stated conditions 24.

[2] = molecular target: T1, recombinant human KDM4A (Homo sapiens, UniProt O75164); test: Formaldehyde dehydrogenase (FDH)-coupled demethylation assay, Michaelis–Menten kinetics; type: biochemical; conditions: peptide as substrate
T1 construct: recombinantly expressed as reported either in Escherichia coli (KDM2A1–557 25, KDM4A1–359 26); His6 (N); made in house; host or cells: Escherichia coli
T1 sequence (O75164 1-359): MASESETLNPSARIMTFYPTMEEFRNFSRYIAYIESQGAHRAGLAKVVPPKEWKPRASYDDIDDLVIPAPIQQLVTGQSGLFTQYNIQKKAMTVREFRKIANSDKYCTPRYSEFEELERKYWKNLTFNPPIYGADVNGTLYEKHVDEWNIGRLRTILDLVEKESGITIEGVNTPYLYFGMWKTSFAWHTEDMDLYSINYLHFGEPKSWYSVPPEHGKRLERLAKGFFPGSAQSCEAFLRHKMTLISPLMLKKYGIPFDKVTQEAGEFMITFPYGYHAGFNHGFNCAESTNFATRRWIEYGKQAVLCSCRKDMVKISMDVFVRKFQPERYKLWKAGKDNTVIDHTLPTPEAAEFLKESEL
Protocol: Kinetic parameters for KDM4 enzymes were determined by use of an FDH (formaldehyde dehydrogenase)/NAD^+‐coupled) assay for quantification of the formaldehyde reaction byproduct, as previously described 27. […] Specific activities were measured using a 100‐μM peptide. For Michaelis–Menten experiments, peptide concentrations were varied. Reactions were monitored using a PHERAstar FS plate reader (BMG Labtech, Ortenberg, Germany) with 355 nm excitation and 460 nm emission. Kinetic parameters were calculated from the reaction rate during the initial linear phase of formaldehyde production, which were used to calculate specific activities or fitted to Michaelis–Menten equations using […] PRISM (GraphPad Software, La Jolla, CA, USA).
Michaelis–Menten kinetics were then conducted with KDM4A. Samples containing KDM4A, 2OG, ascorbate, H1.4K26me3 peptide, NAD^+ and FDH were analysed over time and kinetic parameters were determined by recording the initial reaction rates of NADH production (corresponding to enzymatic production of formaldehyde) at varying peptide concentration.

[3] = system: KDM4B (KDM4B1–359); test: MALDI-TOF MS demethylation activity assay, KDM4B; type: biochemical, human; set-up: key: 🟢: Indicates that clear demethylation activity was observed; 🟡: Indicates that low level demethylation activity was observed (<10% conversion after 1 h); 🔴: Indicates no activity under the stated conditions (1 μM KDM, 10 μM peptide); 🟡*: *Indicates demethylation activity was only observed with 5 μM KDM; conditions: peptide as substrate, 1 μM KDM, 10 μM peptide, 50 mM HEPES pH 7.5, Fe(II) 10 μM, ascorbate 100 μM, 2OG 200 μM, 1 h at 37 °C
Protocol: as §1, §2

[4] = system: KDM4E (KDM4E1–337); test: MALDI-TOF MS demethylation activity assay, KDM4E; type: biochemical, human; set-up: key: 🟢: Indicates that clear demethylation activity was observed; 🟡: Indicates that low level demethylation activity was observed (<10% conversion after 1 h); 🔴: Indicates no activity under the stated conditions (1 μM KDM, 10 μM peptide); 🟡*: *Indicates demethylation activity was only observed with 5 μM KDM; conditions: peptide as substrate, 1 μM KDM, 10 μM peptide, 50 mM HEPES pH 7.5, Fe(II) 10 μM, ascorbate 100 μM, 2OG 200 μM, 1 h at 37 °C
Protocol: as §1
(§3) The propensity of human JmjC KDMs to catalyse demethylation at H1.4K26 was investigated using recombinant forms of the catalytic domains of representatives of each human JmjC KDM subfamily (KDM2‐7) and fragment peptides (Table S1) 37. Three peptides with identical sequences, corresponding to residues 18–32 of histone H1.4 (H2N‐[…]‐CONH2), but containing either a N ^ε‐tri‐, di‐ or monomethyllysine at K26 were synthesised (Fig. 1B and Table S1). Activity assays monitoring JmjC KDM‐catalysed demethylation of the peptides were then carried out; samples were prepared containing each peptide, 2‐oxoglutarate (2OG), ferrous iron, ascorbate and individual representatives from each JmjC KDM subfamily (KDM2A 38, KDM3A 21, KDM4E 22, KDM5C 39, 40, KDM6B 41, KDM7A 42).

[5] = system: KDM6B (KDM6B1141–1590); test: MALDI-TOF MS demethylation activity assay, KDM6B; type: biochemical, human; set-up: key: 🟢: Indicates that clear demethylation activity was observed; 🟡: Indicates that low level demethylation activity was observed (<10% conversion after 1 h); 🔴: Indicates no activity under the stated conditions (1 μM KDM, 10 μM peptide); 🟡*: *Indicates demethylation activity was only observed with 5 μM KDM; conditions: peptide as substrate, 1 μM KDM, 10 μM peptide, 50 mM HEPES pH 7.5, Fe(II) 10 μM, ascorbate 100 μM, 2OG 200 μM, 1 h at 37 °C
Protocol: as §1, §3

[6] = concentration varied, FDH/NAD+-coupled fluorescence assay, 50 mM HEPES pH 7.5, 0.01% Tween-20, 2OG 200 μM, KDM4A, mean and standard deviation of three independent replicates, SD

K M [2, 6]: 32.3 ± 6.4 µM
k cat [2, 6]: 0.32 ± 0.049 s⁻¹
k cat/K M ([2]; FDH-coupled assay, ratio of k cat (s^−1) and K M (μM)): 9800 M⁻¹ s⁻¹
Substance: TPVKKKAR[Lys(Me3)]SAGAAK [H1.4(18–32)K26me3, peptide of residues 18–32 of histone H1.4 with N ε-trimethyllysine at K26]
demethylation activity on methylated H1.4 peptide [1]: 🟢
demethylation activity on methylated H1.4 peptide [3]: 🟢
demethylation activity on methylated H1.4 peptide [4]: 🟢
demethylation activity on methylated H1.4 peptide [5]: 🔴
